From patent US20250312336A1, “Compositions And Methods For Treating Cancer With Calcium Channel Inhibitors” (Institute for Cancer Research d/b/a The Research Institute …, priority 2024, published 2025)
Entries after “also recorded” stand apart in the source; their conditions may differ.

Assays:
[1] = test system: PtdSer externalization in KPC tumors; assay: Phosphatidylserine imaging in autochthonous KPC pancreatic tumors; format: in vivo, mouse; details: KPC mice
KPC3 pancreatic tumors = assay: Orthotopic syngeneic KPC3 pancreatic tumor growth; format: in vivo, mouse; details: oral gavage 5 days/week for 3 weeks; niclosamide 150 mg/kg, clofazimine 50 mg/kg
Method: Syngeneic 5×10^5 KPC3 cells were injected into the tail of pancreas of anesthetized C57B1/6J mice. […] Mice were kept under defined-flora pathogen-free conditions at the AAALAC-approved Animal Facility of the Fox Chase Cancer Center, Philadelphia, PA. Mice of both genders, equally distributed, were used for the experiments.

OT-1 CTLs = assay: Trogocytosis assay of DiD-labeled CAFs co-cultured with OT-1 CTLs; format: cell-based, mouse; details: 12 h co-culture; niclosamide 1 μM, clofazimine 1 μM, anti-TIM3 Ab 4 μg/ml, 25-hydroxycholesterol 4 μM
Method: For trogocytosis between OT-1 and CAF cells, T cells were isolated from splenocytes of OTI mice (strain 021880, The Jackson Laboratory) and stimulated with OVA257-264 (1 μg/ml) for 24 hours as described.
Cholesterol abundance in cell membranes was determined with Cholesterol Detection Assay Kit (Cayman, cat #10009779). Dissociated cells were fixed with fixative solution for 10 minutes, washed and labeled with Filipin III as per the manufacturer's instructions. Labeling with Filipin III was done by incubating in the dark for 30 minutes. After two washes for 5 minutes each, labeling was analyzed by flow cytometry (excitation: 340-380, emission: 385-470). The IFN-γ, Granzyme B and Foxp3 were detected using Foxp3/Transcription Factor Staining Buffer (00-5523-00, Thermo Fisher Scientific). Cells were stained for cell surface markers at 4° C. for 30 min followed by fixation and permeabilization buffer for 30 mins and two washes with permeabilization buffer and incubation with the indicated antibodies for 30 mins, washed with PBS twice followed by flow cytometry analysis.

[2] = test system: TMEM16F-dependent syncytia induced by SARS-COV-2; details: previous studies; cited from earlier work
ANO6 [3] = target: T1, ANO6 (Homo sapiens, UniProt Q4KMQ2); assay: PtdSer externalization (annexin XII) in CAFs co-cultured with DsRed-tagged Panc-1 cells; format: cell-based; parameters: this increase was observed only in control CAFs (ANO6-proficient) engaged in physical contacts with DsRed-tagged Panc-1 cells; endogenous in cells; host or cells: human CAFs in co-culture with DsRed-tagged Panc-1 cells; details: BTP2 10 μM; clofazimine 1 μM; niclosamide
T1 sequence (Q4KMQ2 1-910): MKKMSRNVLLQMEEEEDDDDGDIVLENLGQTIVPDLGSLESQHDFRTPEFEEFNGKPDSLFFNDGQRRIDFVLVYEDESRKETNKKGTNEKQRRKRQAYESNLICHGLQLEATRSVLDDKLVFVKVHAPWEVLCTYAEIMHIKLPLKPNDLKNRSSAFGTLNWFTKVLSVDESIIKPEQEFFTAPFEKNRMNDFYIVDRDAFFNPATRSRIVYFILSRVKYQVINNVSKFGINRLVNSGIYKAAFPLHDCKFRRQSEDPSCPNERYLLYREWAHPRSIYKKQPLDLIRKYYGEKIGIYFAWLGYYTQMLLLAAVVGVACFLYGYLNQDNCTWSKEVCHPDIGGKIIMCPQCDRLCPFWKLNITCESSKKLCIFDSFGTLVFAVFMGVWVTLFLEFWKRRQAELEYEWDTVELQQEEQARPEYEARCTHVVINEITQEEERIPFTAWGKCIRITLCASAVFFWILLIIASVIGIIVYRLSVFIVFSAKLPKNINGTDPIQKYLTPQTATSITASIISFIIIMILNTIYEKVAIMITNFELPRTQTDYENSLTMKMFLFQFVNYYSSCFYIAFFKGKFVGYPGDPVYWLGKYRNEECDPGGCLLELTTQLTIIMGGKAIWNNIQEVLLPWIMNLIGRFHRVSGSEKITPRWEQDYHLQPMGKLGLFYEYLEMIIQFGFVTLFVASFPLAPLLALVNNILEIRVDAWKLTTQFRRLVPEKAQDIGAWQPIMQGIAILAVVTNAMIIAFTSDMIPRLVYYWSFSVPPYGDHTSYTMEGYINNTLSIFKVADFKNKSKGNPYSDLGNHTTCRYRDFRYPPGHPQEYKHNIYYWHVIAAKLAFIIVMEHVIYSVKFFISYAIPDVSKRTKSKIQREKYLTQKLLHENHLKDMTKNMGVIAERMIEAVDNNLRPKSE
Method: (§1) CAFs were seeded in 24-well glass bottom plates (cat. #81156, Ibidi, Fitchburg, WI) at a density of 20,000 cells per well. Cells were then treated with niclosamide (1 μM) for 2 h. After one wash with FBS-free media at RT, cells were incubated with 250 μl of 1:100 annexin XII and 1:200 propidium iodide (pSIVA Abcam #ab129817), with or without 10 μM ionomycin. Cells were then incubated (5 min 37C) and imaged by fluorescence microscopy using a Nikon A1 camera (Nikon) linked to a Nikon Eclipse Ti2-E Inverted Microscope Imaging System (Nikon) for each channel. Fifteen images per well were acquired.

[4] = test system: DsRed-tagged PDAC KPC3 tumors; assay: Intravital multiphoton imaging of BODIPY-cholesterol LDL uptake in DsRed-tagged KPC3 tumors; format: in vivo, mouse
Method: Mice with established orthotopic tumors roughly 21 days post implantation were anesthetized with 1.5-2% isoflurane/oxygen mixture maintained for the duration of imaging. Pancreatic tumors were exposed through a 1 cm incision on the left flank of the mouse placed on a 35° C. heating pad (Kent Scientific). Intensity thresholds were set up to distinguish signal from background fluorescence, and areas positive for DsRed, indicative of tumor cells, were selected for 3D confocal imaging using a 25× objective in the Leica SP8 Dive multiphoton imaging system (Leica Microsystems), prior to the intravenous administration of 150 μL of LDL carrying BODIPY-cholesterol and at 0.5, 1, 5, 16, and 19-hour interval post injection with XY resolution 0.867 um/px and Z distance 2 μm. For each time interval, 2-3 mice were imaged for 0.5-2 hours under continuous anesthesia. At the end of each imaging session, the animals were euthanized, and tissues were collected. The acquired 3D stacks were analyzed using Imaris 10.0.0 software (Oxford Instruments, UK). […] Mean intensity of cholesterol volume co-localized with tumor volume or volume outside of tumor was measured and ratio inside intensity/outside intensity was calculated. […] The volume of vesicles inside the tumor were expressed as a percentage relative to tumor volume.

CAF1 fibroblasts = assay: Western blot of signaling epitopes in CAF1 fibroblast lysates; format: cell-based, human; details: band densities relative to vehicle control
Method: Functional fibroblastic cell 3D culture units are needed to ensure the pathophysiological signal reciprocity between fibroblastic cells and self-generated ECM is sustained ex vivo. These units were generated using known methods. Briefly, confluent cultures of human pancreatic fibroblastic cells, harvested from surgical samples and immortalized via hTERT overexpression, were supplemented daily with freshly-prepared ascorbic acid (50 ug/mL) for a period lasting 5 days. The resulting fibroblastic/ECM 3D functional units were used for the phenotypic characterization of the units and to report on the pro-tumor vs. tumor-suppressive (normalized) statuses of the experimental fibroblastic/ECM units. For this, lysates obtained from the assorted units were resolved using SDS-PAGE and traits were gauged via western blot; testing for constitutive integrin and PI3K activities depicted by phosphorylated FAK and AKT respectively. Cultured cells were lysed in RIPA buffer (#24928, Santa Cruz) with phosphatase inhibitor (#1862495, Thermo Fisher Scientific) and protease inhibitors (#1861278, Thermo Fisher Scientific) on ice and cleared by centrifugation (15 min at 17,000 g). The protein concentration was measured with a Pierce BCA Protein Assay Kit (#23225, Thermo Fisher Scientific). […] The density of obtained bands was quantified with Image J software (FIJI).

ANO6 [5] = target: T1, ANO6; assay: Phosphatidylserine externalization assay in CAFs pulsed with ionomycin (annexin XII); format: cell-based; parameters: endogenous in cells; host or cells: human patient-derived, hTERT-immortalized pancreatic cancer-associated fibroblasts (CAFs); details: niclosamide 1 μM 2 h; ionomycin 5 minutes at 10 μM; annexin XII staining
Method: as §1

Panc-1 cells = assay: Viability of Panc-1 cells under HDL receptor blockade; format: cell-based, human; details: HDL receptor inhibitor, LDS
Method: For direct enumeration of viable cells in co-cultures with CAFs, we seeded CAFs at 12,000 cells per well in 96-well plate (#3603, Corning) in DMEM/10% FBS. The next day, the media was replaced with 10%/LDS/DMEM and 4,000 DsRed-tagged Panc-1 cells were plated on the top of CAFs at 3:1 ratio. After 96 hours, fluorescence of viable DsRed-positive Panc-1 cells was measured using Spark Multimode Microplate Reader (Tecan) with parameters set at 540 nm for excitation and 590 nm for detection. To measure the dynamics of cell proliferation in vitro, we used xCELLigence E-Plate (ACEA BioSciences,) as per the manufacturer's recommended protocol. Impedance values were recorded every hour. Data was graphed using GraphPad Prism software.

Row | Compound | PtdSer externalization in cytokeratin-positive cancer cells and podoplanin-positive CAFs (KL5c betabody) ([1]; two daily doses 50 mg/kg, 50 μg KL5c IV 5 hours prior to sacrifice) | PtdSer externalization in KPC tumors (PSVue-794 infrared probe) ([1]; two daily doses 50 mg/kg, probe IV 24 hours prior to sacrifice) | Detection of externalized PtdSer in PDAC using two chemically unrelated probes ([1]; two daily doses of clofazimine 50 mg/kg, KL5c betabody and PSVue-794) | Tumor weights of orthotopic syngeneic KPC3 pancreatic tumors (KPC3 pancreatic tumors) | Transfer of DiD (CAF PM uptake) from CAFs to OT-1 CTLs (OT-1 CTLs) | Formation of TMEM16F-dependent syncytia induced by SARS-COV-2 [2] | PtdSer externalization (annexin XII) in CAFs co-cultured with Panc-1 cells (ANO6 [3]) | Cholesterol accumulation in intratumoral vesicles containing BODIPY-cholesterol ([4]; 19 hours post injection) | BODIPY-cholesterol accumulation in DsRed-tagged PDAC KPC3 cells ([4]; niclosamide-treated mice, after intravenous labeled LDL, 10, 16 and 19 hours) | Signaling: expression of indicated protein epitopes in total cellular lysates of unmodified CAF1 fibroblasts (CAF1 fibroblasts) | PtdSer externalization induced by ionomycin in CAFs pre-treated with inhibitor (ANO6 [5]) | Panc-1 viability (Panc-1 cells)
1 | CC(C)/N=c1\cc2n(-c3ccc(Cl)cc3)c3ccccc3nc-2cc1Nc1ccc(Cl)cc1 [clofazimine] | blocks PtdSer externalization | blocks PtdSer externalization | completely suppressed detection of externalized PtdSer | significantly reduced tumor weights | notably suppressed the measured transfer | block formation | suppressed PtdSer externalization; also recorded: blocked |  |  |  |  | 
2 | O=C(Nc1ccc([N+](=O)[O-])cc1Cl)c1cc(Cl)ccc1O [niclosamide] |  |  |  | significantly reduced tumor weights | notably suppressed the measured transfer | block formation | absence of annexin XII labeling | significantly lower accumulation | suppressed BODIPY-cholesterol accumulation | suppresses signaling | did not cause externalized PtdSer; also recorded: prevents PtdSer externalization | 
3 | CCCCCCC1CCCC1=NNC(N)=S (stereo not shown) [BTL1] |  |  |  |  |  |  |  |  |  |  |  | loss of Panc-1 viability
